Test results from patent publication US9156829B2, “Cycloalkyl and heterocycloalkyl compounds as orexin receptor antagonists” (Takeda Pharmaceutical Company Limited, priority 2014, dated 2015).

Assays:
[1] = biological target: human orexin receptor 1 (Homo sapiens (Human), UniProt O43613); experiment: Orexin antagonist activity, intracellular calcium FLIPR assay, RBL-2H3 cells expressing human orexin receptor 1; type: cell-based; settings: RBL-2H3 cells stably expressing human orexin receptor 1; orexin-A at approx. 80% maximal response; compound added 15 minutes before; read-out: Human Orexin1R IC50
Sequence of human orexin receptor 1 (O43613 whole entry): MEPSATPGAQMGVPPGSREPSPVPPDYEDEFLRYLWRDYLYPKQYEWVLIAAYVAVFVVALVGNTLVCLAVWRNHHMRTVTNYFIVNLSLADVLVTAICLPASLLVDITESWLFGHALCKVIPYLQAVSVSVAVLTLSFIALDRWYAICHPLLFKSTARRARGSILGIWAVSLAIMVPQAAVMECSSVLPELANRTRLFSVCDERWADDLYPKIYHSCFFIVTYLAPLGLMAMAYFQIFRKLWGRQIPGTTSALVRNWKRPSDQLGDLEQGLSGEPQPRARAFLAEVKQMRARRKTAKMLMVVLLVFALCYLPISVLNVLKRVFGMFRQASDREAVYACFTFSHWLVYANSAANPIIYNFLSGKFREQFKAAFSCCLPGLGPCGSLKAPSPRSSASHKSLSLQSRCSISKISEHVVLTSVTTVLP

[2] = biological target: human orexin receptor 2 (Homo sapiens (Human), UniProt O43614); experiment: Orexin antagonist activity, intracellular calcium FLIPR assay, RBL-2H3 cells expressing human orexin receptor 2; type: cell-based; settings: RBL-2H3 cells stably expressing human orexin receptor 2; orexin-A at approx. 80% maximal response; compound added 15 minutes before; read-out: Human Orexin2R IC50
Sequence of human orexin receptor 2 (O43614 whole entry): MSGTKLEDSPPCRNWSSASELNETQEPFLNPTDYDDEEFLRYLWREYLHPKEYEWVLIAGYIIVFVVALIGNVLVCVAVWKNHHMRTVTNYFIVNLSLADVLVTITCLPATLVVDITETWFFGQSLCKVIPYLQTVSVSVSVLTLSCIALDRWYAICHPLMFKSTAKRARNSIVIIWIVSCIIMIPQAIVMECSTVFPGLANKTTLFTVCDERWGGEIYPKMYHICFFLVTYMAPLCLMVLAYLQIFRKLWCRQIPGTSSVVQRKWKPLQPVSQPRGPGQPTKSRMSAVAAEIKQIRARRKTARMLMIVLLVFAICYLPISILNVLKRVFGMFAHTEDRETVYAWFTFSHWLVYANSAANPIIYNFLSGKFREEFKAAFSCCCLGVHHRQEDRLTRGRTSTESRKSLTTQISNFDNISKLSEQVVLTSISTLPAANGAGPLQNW

SMILES | IC50 [1] [nM] | IC50 [2] [nM]
O=C(NC1CCCC1Cc1ccc(C(F)(F)F)cn1)c1ccccc1-n1nccn1 (single isomer, unassigned) [Example 25, 2-(2H-1,2,3-Triazol-2-yl)-N-(2-{[5-(trifluoromethyl)pyridin-2-yl]methyl}cyclopentyl)benzamide] | 472 | > 10000
COc1cccc(F)c1C(=O)N[C@H]1CCC[C@@H]1Nc1cnc(C(F)(F)F)cn1 [Example 136, 2-Fluoro-6-methoxy-N-[(1S,2S)-2-{[5-(trifluoromethyl)pyrazin-2-yl]amino}cyclopentyl]benzamide] | 830 | > 10000
O=C(N[C@H]1CCC[C@@H]1Nc1cnc(C(F)(F)F)cn1)c1cc(F)ccc1-n1cccn1 [Example 47, 5-Fluoro-2-(1H-pyrazol-1-yl)-N-[(1S,2S)-2-{[5-(trifluoromethyl)pyrazin-2-yl]amino}cyclopentyl]benzamide] | 445 | > 10000
O=C(N[C@H]1CCC[C@@H]1Nc1ncc(C(F)(F)F)cn1)c1ccccc1Cl [Example 70, 2-Chloro-N-[(1S,2S)-2-{[5-(trifluoromethyl)pyrimidin-2-yl]amino}cyclopentyl]benzamide] | 678 | > 10000
O=C(N[C@H]1CCC[C@@H]1Nc1cnc(C(F)(F)F)cn1)c1c(F)cccc1F [Example 33, 2,6-Difluoro-N-[(1S,2S)-2-{[5-(trifluoromethyl)pyrazin-2-yl]amino}cyclopentyl]benzamide] | 890 | > 10000
COc1cccc(OC)c1C(=O)N[C@H]1CCC[C@@H]1Nc1ncc(C(F)(F)F)cn1 [Example 2, 2,6-Dimethoxy-N-[(1S,2S)-2-{[5-(trifluoromethyl)pyrimidin-2-yl]amino}cyclopentyl]benzamide] | 870 | > 10000
CCc1cnc(N[C@H]2CCC[C@@H]2NC(=O)c2cc(C)ccc2-n2nccn2)nc1 [Example 4, N-[(1S,2S)-2-[(5-Ethylpyrimidin-2-yl)amino]cyclopentyl]-5-methyl-2-(2H-1,2,3-triazol-2-yl)benzamide] | 520 | > 10000
O=C(N[C@H]1CCC[C@@H]1Nc1cnc(C(F)(F)F)cn1)c1ccccc1C(F)(F)F [Example 62, 2-(Trifluoromethyl)-N-[(1S,2S)-2-{[5-(trifluoromethyl)pyrazin-2-yl]amino}cyclopentyl]benzamide] | 457 | > 10000
C[C@@]1(Nc2cnc(C(F)(F)F)cn2)CCC[C@H]1NC(=O)c1ccccc1-n1nccn1 [Example 83, N-[(1R,2R)-2-Methyl-2-{[5-(trifluoromethyl)pyrazin-2-yl]amino}cyclopentyl]-2-(2H-1,2,3-triazol-2-yl)benzamide] | 2500 | 1400
O=C(N[C@H]1CCC[C@@H]1Nc1ccc(Br)cn1)c1ccccc1-n1nccn1 [Example 118, N-[(1S,2S)-2-[(5-Bromopyridin-2-yl)amino]cyclopentyl]-2-(2H-1,2,3-triazol-2-yl)benzamide] | 368 | > 10000

Stronger by IC50 [1], values ahead:

IC50 [1] [nM] | IC50 [2] [nM] | SMILES
7 | > 10000 | C[C@]1(Nc2cnc(C(F)(F)F)cn2)CCC[C@@H]1NC(=O)c1ccccc1-n1nccn1 [Example 81, N-[(1S,2S)-2-Methyl-2-{[5-(trifluoromethyl)pyrazin-2-yl]amino}cyclopentyl]-2-(2H-1,2,3-triazol-2-yl)benzamide]
289 | > 10000 | O=C(N[C@H]1CCC[C@@H]1Nc1cnc(C(F)(F)F)cn1)c1ncccc1-n1cccn1 [Example 43, 3-(1H-Pyrazol-1-yl)-N-[(1S,2S)-2-{[5-(trifluoromethyl)pyrazin-2-yl]amino}cyclopentyl]pyridine-2-carboxamide]
39 | > 10000 | O=C(N[C@H]1CC(F)(F)C[C@@H]1Nc1ccc(OC(F)(F)F)cn1)c1ccccc1-n1nccn1 [Example 131, N-[(1S,2S)-4,4-Difluoro-2-{[5-(trifluoromethoxy)pyridin-2-yl]amino}cyclopentyl]-2-(2H-1,2,3-triazol-2-yl)benzamide]
279 | > 10000 | CCOc1ccc(C)cc1C(=O)N[C@H]1CCC[C@@H]1Nc1cnc(C(F)(F)F)cn1 [Example 29, 2-Ethoxy-5-methyl-N-[(1S,2S)-2-{[5-(trifluoromethyl)pyrazin-2-yl]amino}cyclopentyl]benzamide]
248 | > 10000 | CN(c1cnc(C(F)(F)F)cn1)[C@H]1CCC[C@@H]1NC(=O)c1ccccc1-n1nccn1 [Example 73, N-[(1S,2S)-2-{Methyl[5-(trifluoromethyl)pyrazin-2-yl]amino}cyclopentyl]-2-(2H-1,2,3-triazol-2-yl)benzamide]
35 | > 10000 | Cc1nc(C(F)(F)F)cnc1N[C@H]1CCC[C@@H]1NC(=O)c1cc(F)ccc1-c1ncccn1 [Example 80, 5-Fluoro-N-[(1S,2S)-2-{[3-methyl-5-(trifluoromethyl)pyrazin-2-yl]amino}cyclopentyl]-2-(pyrimidin-2-yl)benzamide]
175 | > 10000 | O=C(N[C@H]1CCC[C@@H]1Nc1ccc(OC(F)(F)F)cn1)c1ccccc1-n1nccn1 [Example 115, 2-(2H-1,2,3-Triazol-2-yl)-N-[(1S,2S)-2-{[5-(trifluoromethoxy)pyridin-2-yl]amino}cyclopentyl]benzamide]
32 | > 10000 | O=C(N[C@H]1CCC[C@@H]1Nc1ncc(C(F)(F)F)cc1F)c1cc(F)ccc1-c1ncccn1 [Example 139, 5-Fluoro-N-[(1S,2S)-2-{[3-fluoro-5-(trifluoromethyl)pyridin-2-yl]amino}cyclopentyl]-2-(pyrimidin-2-yl)benzamide]
38 | > 10000 | O=C(N[C@H]1CCC[C@@H]1Nc1cnc(C(F)(F)F)cn1)c1cc(C2CC2)ccc1-n1nccn1 [Example 57, 5-Cyclopropyl-2-(2H-1,2,3-triazol-2-yl)-N-[(1S,2S)-2-{[5-(trifluoromethyl)pyrazin-2-yl]amino}cyclopentyl]benzamide]
24 | > 10000 | Cc1cc(C(F)(F)F)cnc1N[C@H]1CCC[C@@H]1NC(=O)c1ccccc1-n1nccn1 [Example 108, N-[(1S,2S)-2-{[3-Methyl-5-(trifluoromethyl)pyridin-2-yl]amino}cyclopentyl]-2-(2H-1,2,3-triazol-2-yl)benzamide]
21 | > 10000 | O=C(N[C@H]1CCC[C@@H]1Nc1ncc(C(F)(F)F)nc1C1CC1)c1ccccc1-n1nccn1 [Example 109, N-[(1S,2S)-2-{[3-Cyclopropyl-5-(trifluoromethyl)pyrazin-2-yl]amino}cyclopentyl]-2-(2H-1,2,3-triazol-2-yl)benzamide]
54 | > 10000 | Cc1noc(-c2ccccc2C(=O)N[C@H]2CCC[C@@H]2Nc2ncc(C(F)(F)F)cn2)n1 [Example 16, 2-(3-Methyl-1,2,4-oxadiazol-5-yl)-N-[(1S,2S)-2-{[5-(trifluoromethyl)pyrimidin-2-yl]amino}cyclopentyl]benzamide]
321 | > 10000 | O=C(N[C@H]1CCC[C@@H]1Nc1cnc(C(F)(F)F)cn1)c1cc(F)cc(F)c1-n1nccn1 [Example 61, 3,5-Difluoro-2-(2H-1,2,3-triazol-2-yl)-N-[(1S,2S)-2-{[5-(trifluoromethyl)pyrazin-2-yl]amino}cyclopentyl]benzamide]
